Source: ChEMBL document CHEMBL1129866, “S1 heterocyclic thrombin inhibitors” (Bioorg Med Chem Lett, 1997)

What was measured:
Coagulation factor X = Coagulation factor X (Homo sapiens, UniProt P00742); assay: Tested for selectivity against Coagulation factor X
Serine protease 1 = Serine protease 1 (Homo sapiens, UniProt P07477); assay: Tested for selectivity against trypsin
Prothrombin = Prothrombin (Homo sapiens, UniProt P00734); assay: Tested for the binding affinity against thrombin

Sequence of Coagulation factor X (P00742 41-179 limits assumed): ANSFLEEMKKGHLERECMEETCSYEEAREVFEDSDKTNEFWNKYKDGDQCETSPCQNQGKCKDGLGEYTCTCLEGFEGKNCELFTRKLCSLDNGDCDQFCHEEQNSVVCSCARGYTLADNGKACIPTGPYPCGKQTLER
Sequence of Coagulation factor X (P00742 235-488 limits assumed): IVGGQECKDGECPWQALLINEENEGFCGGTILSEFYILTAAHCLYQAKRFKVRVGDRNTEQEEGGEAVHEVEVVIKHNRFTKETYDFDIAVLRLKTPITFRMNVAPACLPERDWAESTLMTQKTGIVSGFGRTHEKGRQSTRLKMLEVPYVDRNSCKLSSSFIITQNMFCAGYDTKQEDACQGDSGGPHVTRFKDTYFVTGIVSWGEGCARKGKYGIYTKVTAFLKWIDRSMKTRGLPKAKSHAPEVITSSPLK
Sequence of Serine protease 1 (P07477 whole entry): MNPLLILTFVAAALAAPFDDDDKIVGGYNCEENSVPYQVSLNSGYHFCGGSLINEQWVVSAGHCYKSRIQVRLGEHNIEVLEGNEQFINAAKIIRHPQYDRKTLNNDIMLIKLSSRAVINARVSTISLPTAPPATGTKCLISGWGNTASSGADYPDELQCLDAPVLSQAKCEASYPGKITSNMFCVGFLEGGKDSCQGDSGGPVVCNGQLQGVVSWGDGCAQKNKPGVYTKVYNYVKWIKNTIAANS

| Structure (SMILES) | Ki (Coagulation factor X) [µM] | Ki (Serine protease 1) [nM] | Ki (Prothrombin) [nM] |
| --- | --- | --- | --- |
| CC(=O)N[C@H](Cc1ccccc1)C(=O)N1CCC[C@H]1C(=O)N[C@@H](CCCNc1ccnc(N)n1)B1O[C@@H]2CC3CC(C3(C)C)[C@]2(C)O1 (stereo partly specified) |  |  | 150 |
| CC(=O)N[C@H](Cc1ccccc1)C(=O)N1CCC[C@H]1C(=O)N[C@@H](CCCSc1ncccn1)B1O[C@@H]2CC3CC(C3(C)C)[C@]2(C)O1 (stereo partly specified) |  | > 1200 | 2000 |
| CC(=O)N[C@H](Cc1ccccc1)C(=O)N1CCC[C@H]1C(=O)N[C@@H](CCCn1ncnc1[N+](=O)[O-])B1O[C@@H]2CC3CC(C3(C)C)[C@]2(C)O1 (stereo partly specified) | > 6 | > 1200 | 199 |
| CC(=O)N[C@H](Cc1ccccc1)C(=O)N1CCC[C@H]1C(=O)N[C@@H](CCCn1ncnc1N)B1O[C@@H]2CC3CC(C3(C)C)[C@]2(C)O1 (stereo partly specified) | > 6 | > 1200 | 507 |
| CC(=O)N[C@H](Cc1ccccc1)C(=O)N1CCC[C@H]1C(=O)N[C@@H](CCCn1ccnc1[N+](=O)[O-])B1O[C@@H]2CC3CC(C3(C)C)[C@]2(C)O1 (stereo partly specified) | > 6 | > 1200 | 650 |
| CC(=O)N[C@H](Cc1ccccc1)C(=O)N1CCC[C@H]1C(=O)N[C@@H](CCCN=C(N)N)B(O)O | 0.009 |  |  |
| CC(=O)N[C@H](Cc1ccccc1)C(=O)N1CCC[C@H]1C(=O)N[C@@H](CCCn1nnnc1N)B1O[C@@H]2CC3CC(C3(C)C)[C@]2(C)O1 (stereo partly specified) | 6 | > 1200 | 350 |
| CC(=O)N[C@H](Cc1ccccc1)C(=O)N1CCC[C@H]1C(=O)N[C@@H](CCCNc1ncccn1)B1O[C@@H]2CC3CC(C3(C)C)[C@]2(C)O1 (stereo partly specified) | > 6 | > 1200 | 600 |
| CC(=O)N[C@H](Cc1ccccc1)C(=O)N1CCC[C@H]1C(=O)N[C@@H](CCCNc1ccccn1)B1O[C@@H]2CC3CC(C3(C)C)[C@]2(C)O1 (stereo partly specified) | > 6 | > 1200 | 230 |

Further molecules by falling Ki (Prothrombin), results first:

| Ki (Coagulation factor X) [µM] | Ki (Serine protease 1) [nM] | Ki (Prothrombin) [nM] | Structure (SMILES) |
| --- | --- | --- | --- |
| 6 | 27 | 67 | CC(=O)N[C@H](Cc1ccccc1)C(=O)N1CCC[C@H]1C(=O)N[C@@H](CCCn1ccnc1)B1O[C@@H]2CC3CC(C3(C)C)[C@]2(C)O1 (stereo partly specified) |
| > 6 | > 1200 | 43 | CC(=O)N[C@H](Cc1ccccc1)C(=O)N1CCC[C@H]1C(=O)N[C@@H](CCCNc1cc(Cl)nc(N)n1)B1O[C@@H]2CC3CC(C3(C)C)[C@]2(C)O1 (stereo partly specified) |
| 6 | > 1200 | 15 | CCCCS(=O)(=O)N[C@H](Cc1ccccc1)C(=O)N1CCC[C@H]1C(=O)N[C@@H](CCCn1ccnc1[N+](=O)[O-])B1O[C@@H]2CC3CC(C3(C)C)[C@]2(C)O1 (stereo partly specified) |
|  |  | 8.8 | CCCCS(=O)(=O)N[C@H](Cc1ccccc1)C(=O)N1CCC[C@H]1C(=O)N[C@@H](CCCSc1ncccn1)B1O[C@@H]2CC3CC(C3(C)C)[C@]2(C)O1 (stereo partly specified) |
| 0.97 | 40 | 3.2 | CCCCS(=O)(=O)N[C@H](Cc1ccccc1)C(=O)N1CCC[C@H]1C(=O)N[C@@H](CCCn1ccnc1N)B1O[C@@H]2CC3CC(C3(C)C)[C@]2(C)O1 (stereo partly specified) |
| > 6 | 214 | 2.1 | CCCCS(=O)(=O)N[C@H](Cc1ccccc1)C(=O)N1CCC[C@H]1C(=O)N[C@@H](CCCNc1cc(Cl)nc(N)n1)B1O[C@@H]2CC3CC(C3(C)C)[C@]2(C)O1 (stereo partly specified) |
| > 6 | 20 | 1.7 | CC(=O)N[C@H](Cc1ccccc1)C(=O)N1CCC[C@H]1C(=O)N[C@@H](CCCn1ccnc1N)B1O[C@@H]2CC3CC(C3(C)C)[C@]2(C)O1 (stereo partly specified) |
